Common to all, as to assay type: cell-based, human
The subject of assay [1] is IL-13 expression in endometrial stromal cells. Description: Effect of ovarian steroids on IL-13 expression in endometrial stromal cells (quantitative RT-PCR, ELISA). The note with it: for IL-13 expression, mRNA and protein level (summary statement): endometrial stromal cells; for IL-13 expression compared to control cells: stromal cells, various time points (e.g. 4, 6, 24 and 36 h after steroid addition). The method, then:
(§1) Cells. Uterine tissue was collected and endometrial stromal cells and their culture conditions were isolated as described previously. Tang et al., Endocrinology 135:450, 1994. The isolated glandular epithelial and stromal cells were grown as monolayers in DMEM-Ham's F-12 (1:1, v/v) supplemented with 10% fetal bovine serum (FBS). Their purity and homogeneity were determined immunocytochemically by the use of monoclonal antibodies to human desmin, smooth muscle α-actin, cytokeratin 19 and vimentin. Ovarian Steroids. To determine the effect of ovarian steroids regulate IL-13 and IL-15 expression in endometrial epithelial and stromal cells, cells were subcultured in 6-well dishes at an approximate density of at 10^6 cells/well, and incubated with phenol-free media containing 10% charcoal-stripped FBS for 48 hrs. The cells were made quiescent under a serum-free condition for 24 hrs, and then treated with E2 (17 β estradiol), MPA (medroxyprogesterone acetate) or E2+MPA either alone or in appropriate combinations, added to phenol-free medium containing 2% charcoal-stripped FBS (cFBS) (Hyclone, Logan, Utah). The level of IL-13 and IL-15 mRNA and protein was determined as described above after appropratie time intervals using quantitative RT-PCR and ELISA.
(In an ELISA, binding on a coated surface is turned into a signal by an enzyme label.)

Assay [2] deals with IL-13 expression in endometrial epithelial cells. Nature of the assay: Effect of ovarian steroids on IL-13 expression in endometrial epithelial cells (quantitative RT-PCR, ELISA). Particulars: for IL-13 expression, mRNA and protein level (summary statement): endometrial epithelial cells; for IL-13 expression compared to control cells: epithelial cells. Here is the method: as §1

Assay [3] concerns IL-15 expression in endometrial stromal cells. Description: Effect of ovarian steroids on IL-15 expression in endometrial stromal cells (quantitative RT-PCR, ELISA). Particulars: for IL-15 expression, mRNA and protein level (summary statement): endometrial stromal cells; for IL-15 expression: stromal cells, various time points. The method, then:
as §1

Assay [4] deals with IL-15 expression in endometrial epithelial cells. Description: Effect of ovarian steroids on IL-15 expression in endometrial epithelial cells (quantitative RT-PCR, ELISA). Particulars: for IL-15 expression, mRNA and protein level (summary statement): endometrial epithelial cells; for IL-15 expression: epithelial cells, various time points. The method, then: as §1
The test system of assay [5] is endometrial stromal cells. Description: 3H-thymidine incorporation and cell proliferation (MTT) assay, stromal cells. The method, then: (§2) Cells. Uterine tissue was collected and endometrial stromal cells and their culture conditions were isolated as described previously. Tang et al., Endocrinology 135:450, 1994. The isolated glandular epithelial and stromal cells were grown as monolayers in DMEM-Ham's F-12 (1:1, v/v) supplemented with 10% fetal bovine serum (FBS). Their purity and homogeneity were determined immunocytochemically by the use of monoclonal antibodies to human desmin, smooth muscle α-actin, cytokeratin 19 and vimentin.
(§3) ^3H-Thymidine Incorporation and Cell Proliferation Assay. Endometrial epithelial and stromal cells were cultured either in 24- or 96-well dishes at approximate density of 2.5×10^5 and 2.5×10^4 cell/well, respectively, in the presence of 10% FBS for 48 h, they were then made quiescent in serum-free condition for 48 h as previously described. Tang et al., supra. The quiescent cells were incubated either in serum-free, or 2% FBS supplemented media, in the presence of appropriate concentrations of IL-13 and/or IL-15 and 2 μCi/ml ^3H-thymidine for 48 h. The rate of incorporated ^3H-thymidine determined as previously described. Tang et al., supra. Cell proliferation assays were preformed by seeding epithelial and stromal cells in 96-well microplates or 24 well dishes, respectively, as described above and cultured in the presence of appropriate concentrations of IL-13 and IL-15 in the presence or absence of 2% FBS. After 48 h the cells were washed and incubated with a dye solution composed of 3-(4,5-dimethylthiazol-2-yl)-2,5-diphenyltetrazolium bromide (MTT) for 4 h at 37° C., solubilized using Promega Cell-Titer assay, and the optical density was measured using Thermomax microplate reader (Molecular Devices) at 570 nm as previously described (Tang et al., supra).
(Uptake of a labelled nucleoside into DNA is a usual measure of proliferation.)

Assay [6] deals with endometrial epithelial cells. Description: 3H-thymidine incorporation and cell proliferation (MTT) assay, epithelial cells. The method, then:
as §2, §3

Assay [7] concerns TNFα receptor type I expression in stromal cells. Description: Effect of IL-13 and IL-15 on TNFα receptor type I expression in stromal cells. The method, then: as §2
(§4) To determine whether IL-13 and IL-15 alter the expression of tumor necrosis factor alpha receptor, the stromal and epitheleal cells (isolated as described in Example3) were cultured, made quiescent, and then treated with IL-13 and IL-15 at appropriate concentration added to medium containing 2% cFBS. After specific time intervals the culture condition media were collected and assay for TNF-α receptor type I as previously described (Faber et al., Obstet Gynecol 98:668–673, 2001; Chegini et al., J Soc Gynecol Invest 6. 154–157, 1999) using ELISA and comparison to known concentrations of standard (R & D system).

Assay [8] deals with TNFα receptor type I expression in epithelial cells. Nature of the assay: Effect of IL-13 and IL-15 on TNFα receptor type I expression in epithelial cells. The method, then: as §2, §4

In the case of `C[C@]12CC[C@@H]3c4ccc(O)cc4CC[C@H]3[C@@H]1CC[C@@H]2O` [E2, 17 β estradiol], the “IL-13 expression, mRNA and protein level (summary statement)” value in assay [1] and in assay [2] was “modulate” in each case. The “IL-13 expression compared to control cells” value is on record as “statistically significant increase” in assay [1]; “statistically significant increase” in assay [2] (24 and 36 h). Besides, the “IL-15 expression, mRNA and protein level (summary statement)” value in assay [3] and in assay [4] was “modulate” in each case. Besides, the IL-15 expression result in assay [3] and in assay [4] was “statistically significant increase” throughout. Also, the “3H-thymidine incorporation compared to control cells” value in assay [5] and in assay [6] was “modulated” each time. Besides, the “cell proliferation compared to control cells” value in assay [5] and in assay [6] was “modulated” throughout.
Take `CC(=O)O[C@]1(C(C)=O)CC[C@H]2[C@@H]3C[C@H](C)C4=CC(=O)CC[C@]4(C)[C@H]3CC[C@@]21C` [MPA, medroxyprogesterone acetate]: the “IL-13 expression, mRNA and protein level (summary statement)” value in assay [1] and in assay [2] was “modulate” each time. The “IL-13 expression compared to control cells” value in assay [1] is recorded as “statistically significant increase”; in assay [2] (24 and 36 h), “statistically significant increase”; in assay [2] (6 h), “statistically significant increase”. Further, the “IL-15 expression, mRNA and protein level (summary statement)” value in assay [3] and in assay [4] was “modulate” in each case. Further, the IL-15 expression entry in assay [3] and in assay [4] was “statistically significant increase” throughout. For the same molecule, the “3H-thymidine incorporation compared to control cells” value in assay [5] and in assay [6] was “modulated” throughout. The “cell proliferation compared to control cells” value in assay [5] and in assay [6] was “modulated” throughout.
In the case of “IL-13: cytokine interleukin-13 added to stromal and epithelial cell cultures”, the “TNFα receptor type I protein expression” value is “statistically significant increase” in assay [7] (24 and 36 h); “statistically significant increase” in assay [8] (36 h). Further, the “TNFα receptor type I mRNA production” value in assay [8] (2, 4 and 6 h) is listed as “increased”.
As to “IL-15: cytokine interleukin-15 added to stromal and epithelial cell cultures”, in assay [7] (6 h), the “TNFα receptor type I mRNA expression compared to control cells” value was “marked increase”. For the same molecule, the “TNFα receptor type I protein expression” value in assay [7] (36 h) is recorded as “statistically significant increase”.

The values are drawn from patent US7049069B2, “Detecting and treating reproductive tract disorders” (University of Florida, priority 2001, dated 2006).
